Experiments:
M1 muscarinic receptor = target: T1, M1 muscarinic receptor (Homo sapiens, UniProt P11229); assay: Functional mobilization of intracellular calcium (FLIPR) in CHO cells expressing M1 muscarinic receptor; format: cell-based; settings: for M1 Activity: CHO cells expressing M1, calcium mobilization; for Emax: CHO, 100% efficacy is the maximum response obtained with the Carbachol control
T1 construct: expressed in transfected cells; host or cells: CHO (M1-CHO recombinant cell line)
T1 sequence (P11229 1-460): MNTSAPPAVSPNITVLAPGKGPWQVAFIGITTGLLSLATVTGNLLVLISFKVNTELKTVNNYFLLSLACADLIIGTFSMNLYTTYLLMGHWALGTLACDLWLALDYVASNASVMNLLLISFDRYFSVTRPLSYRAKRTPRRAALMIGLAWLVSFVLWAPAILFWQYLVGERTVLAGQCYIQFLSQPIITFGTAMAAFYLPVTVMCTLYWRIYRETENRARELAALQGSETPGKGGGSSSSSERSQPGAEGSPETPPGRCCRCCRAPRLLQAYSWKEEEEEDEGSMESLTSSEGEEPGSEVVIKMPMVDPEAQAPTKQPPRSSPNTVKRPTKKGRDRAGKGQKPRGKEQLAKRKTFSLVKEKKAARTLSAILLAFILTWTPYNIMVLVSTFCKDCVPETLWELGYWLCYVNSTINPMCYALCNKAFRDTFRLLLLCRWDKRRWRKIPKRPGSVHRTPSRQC
Procedure, shortened: (§1)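 CHO cells loaded with Fluo-3 or Calcium 3 dye in pH 7.4 bath buffer with 1 mM probenecid, 0.5% DMSO. Agonist mode: compound added directly; inhibition mode: 15 min pre-incubation, then carbachol at EC80 (or co-application). Fluorescence recorded 60 s on FLIPR; efficacy relative to carbachol maximum.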

M4 muscarinic receptor = target: T2, M4 muscarinic receptor (Homo sapiens, UniProt P08173); assay: Functional mobilization of intracellular calcium (FLIPR) in CHO cells expressing M4 muscarinic receptor; format: cell-based; settings: for M4 Activity: CHO cells expressing M4, calcium mobilization; for Emax: CHO, 100% efficacy is the maximum response obtained with the Carbachol control
T2 construct: expressed in transfected cells; host or cells: CHO (M4-CHO recombinant cell line)
T2 sequence (P08173 1-479): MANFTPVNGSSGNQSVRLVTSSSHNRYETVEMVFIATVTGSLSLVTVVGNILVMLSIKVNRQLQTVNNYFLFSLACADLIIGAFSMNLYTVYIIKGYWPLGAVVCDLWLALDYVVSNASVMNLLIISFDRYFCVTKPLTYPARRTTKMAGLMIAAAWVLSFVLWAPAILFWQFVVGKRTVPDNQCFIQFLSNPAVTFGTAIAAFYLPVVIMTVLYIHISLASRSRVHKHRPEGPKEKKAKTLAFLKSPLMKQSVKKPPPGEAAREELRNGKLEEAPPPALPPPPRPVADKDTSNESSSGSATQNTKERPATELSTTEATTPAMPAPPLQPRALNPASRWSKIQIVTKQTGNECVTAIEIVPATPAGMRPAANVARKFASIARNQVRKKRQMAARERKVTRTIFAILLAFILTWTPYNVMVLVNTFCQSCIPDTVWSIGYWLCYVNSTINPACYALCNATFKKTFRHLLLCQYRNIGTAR
Procedure, shortened: as §1

Compound	M1 Activity (M1 muscarinic receptor)	Emax (M1 muscarinic receptor) [%]	M4 Activity (M4 muscarinic receptor)	Emax (M4 muscarinic receptor) [%]
CCOC(=O)N1CCC(N2CCC3(C=C(C(=O)NC)c4ccccc43)CC2)CC1 [compound 65]	+++ (activity was measured to be less than 2.0 μM)	25 to 100	+++ (activity was measured to be less than 2.0 μM)	25 to 100
CC(C)NC(=O)C1=CC2(CCN(CC3CC4C=CC3C4)CC2)c2ccccc21 (stereo not drawn) [compound 66]	+ (activity was measured to be greater than 10.0 μM)	< 25	+++ (activity was measured to be less than 2.0 μM)	25 to 100
CN(C)C(=O)C1=CC2(CCN(CC3CC4C=CC3C4)CC2)c2ccccc21 (stereo not drawn) [compound 67]	+ (activity was measured to be greater than 10.0 μM)	25 to 100	+++ (activity was measured to be less than 2.0 μM)	25 to 100
CNC(=O)C1=CC2(CCN(CC3CC4C=CC3C4)CC2)c2ccccc21 (stereo not drawn) [compound 69]	+++ (activity was measured to be less than 2.0 μM)	25 to 100	+++ (activity was measured to be less than 2.0 μM)	25 to 100
CC(C)NC(=O)C1=CC2(CCN(CCC(C)(C)C)CC2)c2ccccc21 [compound 70]	+ (activity was measured to be greater than 10.0 μM)	25 to 100	+ (activity was measured to be greater than 10.0 μM)	25 to 100
CCC(CC)NC(=O)C1=CC2(CCN(C3CCN(C(=O)OC)CC3)CC2)c2ccccc21 [compound 71]	+ (activity was measured to be greater than 10.0 μM)	< 25	+++ (activity was measured to be less than 2.0 μM)	25 to 100
CCOC(=O)N1CCC(N2CCC3(CC=C(C(=O)NC(C)C)c4ccccc43)CC2)CC1 [compound 72]	+++ (activity was measured to be less than 2.0 μM)	25 to 100	+++ (activity was measured to be less than 2.0 μM)	25 to 100
CCC(CC)NC(=O)C1=CC2(CCN(C3CCCCC3)CC2)c2ccccc21 [compound 73]	+ (activity was measured to be greater than 10.0 μM)	< 25	++ (activity was measured to be from 2.0 μM to 10.0 μM)	25 to 100
CN(C)C(=O)C1=CCC2(CCN(C3C[C@@H]4CC[C@@H]3C4)CC2)c2ccccc21 (stereo partly drawn) [compound 74]	+ (activity was measured to be greater than 10.0 μM)	< 25	++ (activity was measured to be from 2.0 μM to 10.0 μM)	< 25
CCOC(=O)N1C2CCC1CC(N1CCC3(C=C(C(=O)NC(CC)CC)c4ccccc43)CC1)C2 (stereo not drawn) [compound 75]	++ (activity was measured to be from 2.0 μM to 10.0 μM)	25 to 100	+++ (activity was measured to be less than 2.0 μM)	25 to 100
CCC(CC)NC(=O)C1=CC2(CCN(CCC3CCSCC3)CC2)c2ccccc21 [compound 76]	+ (activity was measured to be greater than 10.0 μM)	< 25	+ (activity was measured to be greater than 10.0 μM)	< 25
CC(C)(C)CCN1CCC2(C=C(C(=O)NC3CCCC3)c3ccccc32)CC1 [compound 77]	+ (activity was measured to be greater than 10.0 μM)	25 to 100	+ (activity was measured to be greater than 10.0 μM)	< 25

— patent US7858790B2, “Modulators of muscarinic receptors” (Vertex Pharmaceuticals Incorporated, priority 2006, dated 2010)
